According to patent US12403200B2, “Methods and compositions for treating autoimmune diseases” (priority 2019, dated 2025):

What was measured:
C57BL/6 (CD45.2+) mice = experiment: MOG-induced EAE model with congenic transplant; assay type: in vivo, mouse
Method: Experimental Autoimmune Encephalomyelitis (EAE) Model: C57BL/6 (CD45.2) mice were induced with MOG35-55 peptide in complete Freund's adjuvant, followed by the administration of pertussis toxin (PTX) at 4 h post MOG35-55 and 24 h post initial dose of PTX. Disease onset was around 9-12 days post induction. Animals were scored twice a day for a duration of 80 days post EAE induction. EAE Clinical Scoring Scale: 1-limp tail; 2-partial hind limb paralysis; 3-Complete hind limb paralysis; 4-Complete hind and partial front limb paralysis; 5-moribund bound. Animals were euthanized at 2 consecutive scores of 4. Terminal analysis of tissues (peripheral blood, lymph nodes) were evaluated to determine chimerism and immune component of the relapsing EAE mice. Lymph node cells were stimulated (S) with PMS/lonomycin (50 ng/mL) and Brefeldin A (1 μg/mL) or not stimulated (NS) and evaluated for T cell chimerism (donor, host) and IL-17 production.
To induce EAE in a murine model, C57BL/6 (CD45.2+) mice were induced with MOG35_55 peptide in complete Freund's adjuvant, followed by the administration of pertussis toxin (PTX). […]

[1] = Quintieri et al. 2005; cited from earlier work

Compound: CCCCCCCCc1ccc(CCC(N)(CO)CO)cc1 [FTY-720, reference compound]
- Incidence (C57BL/6 (CD45.2+) mice; Table 3, EAE incidence, treatment groups of FIG. 5G): 100%
- Mean Time to EAE onset (C57BL/6 (CD45.2+) mice; Table 3, treatment groups of FIG. 5G): 12 days
- peak disease score in active EAE (C57BL/6 (CD45.2+) mice; treatment at day 13): 2.3
- progression of disease activity in active EAE (C57BL/6 (CD45.2+) mice; treatment on day 10 or day 13): halted disease

Compound: COc1cccc2c1C(=O)c1c(O)c3c(c(O)c1C2=O)C[C@@](O)(C(=O)CO)C[C@@H]3O[C@H]1CC2[C@H](O[C@@H]3[C@@H](OC)OCCN23)[C@H](C)O1 (some centres unmarked) [PNU-159682]
- cytotoxicity relative to the parent nemorubicin [1]: greater than 3000 fold
